One test relates to MIA PaCa2 cells. As to the kind of experiment: TUNEL staining. In kind it is cell-based, human. The settings on record: MIA PaCa2, 20 μM, 24 hours, vs vehicle or treated HPDE 6C7. The procedure: In addition to its chemopreventive effects, δ-Tocotrienol induces apoptosis in pancreatic cancer. MIA PaCa2 cells were treated with either δ-tocotrienol or vehicle for 24 hours. Cells were collected and stained with annexin V-FITC and analyzed by flow cytometry for apoptosis. […] MIA PaCa2 cells and HPDE 6C7 cells were treated with vehicle or δ-tocotrienol (20 μM) for 24 hours, then harvested and stained for TUNEL. […] Cell lysates were prepared from MIA PaCa2 cells treated with 8-tocotrienol (20 μM) at progressive time intervals and proteins from lysates were run by SDS PAGE and immunoblotted for biomarkers of apoptosis.

Test [1] has as its system p27^kip1 luciferase reporter. As to the kind of experiment: p27^kip1 luciferase reporter assay. In kind it is cell-based, human. The note with it: Mia PaCa2, 20 μM, 24 hours. As for the experimental part:
The mechanism by which δ-tocotrienol upregulates p27^kip1 protein expression was investigated using a luciferase reporter assay. Mia PaCa2 cells transfected with a p27^kip1 luciferase reporter (Wang, et al. Activation of p27Kip1 Expression by E2F1. A negative feedback mechanism. J Biol. Chem. 2005 Apr. 1; 280(13):12339-43. Epub 2005 Feb. 14) were treated with either δ-tocotrienol (20 μM) or vehicle for 24 hours and luciferase activity was then measured using a luminometer.
A general note: A reporter such as luciferase makes a cellular process visible.

We go through one molecule from patent US8846653B2, “Delta-tocotrienol treatment and prevention of pancreatic cancer” (University of South Florida, priority 2006, dated 2014).

As for `CC(C)=CCC/C(C)=C/CC/C(C)=C/CC[C@]1(C)CCc2cc(O)cc(C)c2O1` [T3 delta, delta tocotrienol], in the test with MIA PaCa2 cells, the TUNEL staining result is recorded as “significant staining for TUNEL”. Besides, in test [1], the “luciferase activity (p27^kip1 reporter)” value is given as “increase in luciferase activity”.
